Experimental data reported in article PMC12102759 (Protein Science : A Publication of the Protein Society, 2025).
Where two headings read alike, the source gives them in different places.

System: PABPC1 PABC
Type: binding, human
Conditions: DMS-BM library, bait PABPC1 PABC, row aa = residue at this position
[1] = prey ATXN2, peptide TLNPNAKEFNPRSFSQ, N = wild type
[2] = prey ATXN2, peptide TLNPNAKEFNPRSFSQ, T = wild type
[3] = prey ATXN2, peptide KSTLNPNAKEFNPRSF, P = wild type
[4] = prey ATXN2, TLNPNAKEFNPRSF(averaged) over the two overlapping peptides, P = wild type
[5] = prey ATXN2, TLNPNAKEFNPRSF(averaged) over the two overlapping peptides, F = wild type
[6] = prey ATXN2, peptide TLNPNAKEFNPRSFSQ, E = wild type
[7] = prey ATXN2, peptide TLNPNAKEFNPRSFSQ, A = wild type
[8] = prey ATXN2, peptide KSTLNPNAKEFNPRSF, T = wild type
[9] = prey ATXN2, TLNPNAKEFNPRSF(averaged) over the two overlapping peptides, N = wild type
[10] = prey ATXN2, peptide TLNPNAKEFNPRSFSQ, L = wild type
[11] = prey ATXN2, peptide KSTLNPNAKEFNPRSF, S = wild type
[12] = prey ATXN2, TLNPNAKEFNPRSF(averaged) over the two overlapping peptides, K = wild type
[13] = prey ATXN2, TLNPNAKEFNPRSF(averaged) over the two overlapping peptides, S = wild type
[14] = prey ATXN2, TLNPNAKEFNPRSF(averaged) over the two overlapping peptides, R = wild type
[15] = prey ATXN2, peptide TLNPNAKEFNPRSFSQ, F = wild type
[16] = prey ATXN2, peptide KSTLNPNAKEFNPRSF, N = wild type
[17] = prey ATXN2, peptide TLNPNAKEFNPRSFSQ, S = wild type
[18] = prey ATXN2, TLNPNAKEFNPRSF(averaged) over the two overlapping peptides, A = wild type
[19] = prey ATXN2, peptide KSTLNPNAKEFNPRSF, F = wild type
[20] = prey ATXN2, peptide TLNPNAKEFNPRSFSQ, K = wild type

TLNPNAKEFNPRSFSQ N5D (TLNPDAKEFNPRSFSQ)
DMS-derived PSSM value, position N5 [1]: 0.00392

TLNPNAKEFNPRSFSQ T1I (ILNPNAKEFNPRSFSQ)
DMS-derived PSSM value, position T1 [2]: 0.00436

KSTLNPNAKEFNPRSF P13F (KSTLNPNAKEFNFRSF)
DMS-derived PSSM value, position P13 [3]: 0.002959

KSTLNPNAKEFNPRSF P6W (KSTLNWNAKEFNPRSF)
DMS-derived PSSM value, position P6 [3]: 0

TLNPNAKEFNPRSF(averaged) P4Y (TLNYNAKEFNPRSF)
DMS-derived PSSM value (averaged), position P4 [4]: 0

TLNPNAKEFNPRSF(averaged) F14G (TLNPNAKEFNPRSG)
DMS-derived PSSM value (averaged), position F14 [5]: 0.002756

TLNPNAKEFNPRSFSQ E8S (TLNPNAKSFNPRSFSQ)
DMS-derived PSSM value, position E8 [6]: 0.09805

TLNPNAKEFNPRSFSQ A6Q (TLNPNQKEFNPRSFSQ)
DMS-derived PSSM value, position A6 [7]: 0

KSTLNPNAKEFNPRSF T3D (KSDLNPNAKEFNPRSF)
DMS-derived PSSM value, position T3 [8]: 0.0007076

TLNPNAKEFNPRSFSQ N3M (TLMPNAKEFNPRSFSQ)
DMS-derived PSSM value, position N3 [1]: 0

TLNPNAKEFNPRSF(averaged) N3Q (TLQPNAKEFNPRSF)
DMS-derived PSSM value (averaged), position N3 [9]: 0.0275

KSTLNPNAKEFNPRSF E10G (KSTLNPNAKGFNPRSF)
DMS-derived PSSM value, position E10 (prey ATXN2, peptide KSTLNPNAKEFNPRSF, E = wild type): 0

KSTLNPNAKEFNPRSF P13T (KSTLNPNAKEFNTRSF)
DMS-derived PSSM value, position P13 [3]: 0.0002514

TLNPNAKEFNPRSF(averaged) P4W (TLNWNAKEFNPRSF)
DMS-derived PSSM value (averaged), position P4 [4]: 0

TLNPNAKEFNPRSFSQ E8L (TLNPNAKLFNPRSFSQ)
DMS-derived PSSM value, position E8 [6]: 0

TLNPNAKEFNPRSFSQ L2D (TDNPNAKEFNPRSFSQ)
DMS-derived PSSM value, position L2 [10]: 0

TLNPNAKEFNPRSFSQ L2T (TTNPNAKEFNPRSFSQ)
DMS-derived PSSM value, position L2 [10]: 0

KSTLNPNAKEFNPRSF S2M (KMTLNPNAKEFNPRSF)
DMS-derived PSSM value, position S2 [11]: 0.2211

TLNPNAKEFNPRSF(averaged) K7T (TLNPNATEFNPRSF)
DMS-derived PSSM value (averaged), position K7 [12]: 0.01485

TLNPNAKEFNPRSF(averaged) S13F (TLNPNAKEFNPRFF)
DMS-derived PSSM value (averaged), position S13 [13]: 0.01382

TLNPNAKEFNPRSF(averaged) R12Y (TLNPNAKEFNPYSF)
DMS-derived PSSM value (averaged), position R12 [14]: 0.04827

KSTLNPNAKEFNPRSF T3A (KSALNPNAKEFNPRSF)
DMS-derived PSSM value, position T3 [8]: 0.04081

TLNPNAKEFNPRSFSQ N10I (TLNPNAKEFIPRSFSQ)
DMS-derived PSSM value, position N10 [1]: 0.00743

KSTLNPNAKEFNPRSF P6G (KSTLNGNAKEFNPRSF)
DMS-derived PSSM value, position P6 [3]: 0.01358

TLNPNAKEFNPRSF(averaged) P11Q (TLNPNAKEFNQRSF)
DMS-derived PSSM value (averaged), position P11 [4]: 0.04932

TLNPNAKEFNPRSF(averaged) T1A (ALNPNAKEFNPRSF)
DMS-derived PSSM value (averaged), position T1 (prey ATXN2, TLNPNAKEFNPRSF(averaged) over the two overlapping peptides, T = wild type): 0.03742

TLNPNAKEFNPRSFSQ F14D (TLNPNAKEFNPRSDSQ)
DMS-derived PSSM value, position F14 [15]: 0.0175

TLNPNAKEFNPRSF(averaged) S13L (TLNPNAKEFNPRLF)
DMS-derived PSSM value (averaged), position S13 [13]: 0.2429

KSTLNPNAKEFNPRSF S15F (KSTLNPNAKEFNPRFF)
DMS-derived PSSM value, position S15 [11]: 0.0234

TLNPNAKEFNPRSFSQ T1E (ELNPNAKEFNPRSFSQ)
DMS-derived PSSM value, position T1 [2]: 0.003724

TLNPNAKEFNPRSFSQ F14H (TLNPNAKEFNPRSHSQ)
DMS-derived PSSM value, position F14 [15]: 0.09586

KSTLNPNAKEFNPRSF K9A (KSTLNPNAAEFNPRSF)
DMS-derived PSSM value, position K9 (prey ATXN2, peptide KSTLNPNAKEFNPRSF, K = wild type): 0.002649

TLNPNAKEFNPRSF(averaged) P4R (TLNRNAKEFNPRSF)
DMS-derived PSSM value (averaged), position P4 [4]: 0

KSTLNPNAKEFNPRSF N12W (KSTLNPNAKEFWPRSF)
DMS-derived PSSM value, position N12 [16]: 0.1585

TLNPNAKEFNPRSF(averaged) P11A (TLNPNAKEFNARSF)
DMS-derived PSSM value (averaged), position P11 [4]: 0.00277

TLNPNAKEFNPRSF(averaged) N5W (TLNPWAKEFNPRSF)
DMS-derived PSSM value (averaged), position N5 [9]: 0.0006294

TLNPNAKEFNPRSFSQ T1Q (QLNPNAKEFNPRSFSQ)
DMS-derived PSSM value, position T1 [2]: 0.00769

TLNPNAKEFNPRSFSQ S15G (TLNPNAKEFNPRSFGQ)
DMS-derived PSSM value, position S15 [17]: 0.2429

TLNPNAKEFNPRSFSQ S13N (TLNPNAKEFNPRNFSQ)
DMS-derived PSSM value, position S13 [17]: 0.07115

TLNPNAKEFNPRSFSQ P11E (TLNPNAKEFNERSFSQ)
DMS-derived PSSM value, position P11 (prey ATXN2, peptide TLNPNAKEFNPRSFSQ, P = wild type): 0.0006031

TLNPNAKEFNPRSF(averaged) N10G (TLNPNAKEFGPRSF)
DMS-derived PSSM value (averaged), position N10 [9]: 0.02059

KSTLNPNAKEFNPRSF S15H (KSTLNPNAKEFNPRHF)
DMS-derived PSSM value, position S15 [11]: 0.1165

TLNPNAKEFNPRSFSQ N5E (TLNPEAKEFNPRSFSQ)
DMS-derived PSSM value, position N5 [1]: 3.906e-5

TLNPNAKEFNPRSF(averaged) L2F (TFNPNAKEFNPRSF)
DMS-derived PSSM value (averaged), position L2 (prey ATXN2, TLNPNAKEFNPRSF(averaged) over the two overlapping peptides, L = wild type): 0.05162

TLNPNAKEFNPRSF(averaged) A6I (TLNPNIKEFNPRSF)
DMS-derived PSSM value (averaged), position A6 [18]: 0.01774

TLNPNAKEFNPRSFSQ S15V (TLNPNAKEFNPRSFVQ)
DMS-derived PSSM value, position S15 [17]: 0.009732

TLNPNAKEFNPRSF(averaged) R12T (TLNPNAKEFNPTSF)
DMS-derived PSSM value (averaged), position R12 [14]: 0.1269

TLNPNAKEFNPRSFSQ L2Y (TYNPNAKEFNPRSFSQ)
DMS-derived PSSM value, position L2 [10]: 0.1104

KSTLNPNAKEFNPRSF F11P (KSTLNPNAKEPNPRSF)
DMS-derived PSSM value, position F11 [19]: 0

KSTLNPNAKEFNPRSF N12Y (KSTLNPNAKEFYPRSF)
DMS-derived PSSM value, position N12 [16]: 0.1026

TLNPNAKEFNPRSF(averaged) P11S (TLNPNAKEFNSRSF)
DMS-derived PSSM value (averaged), position P11 [4]: 0.02695

TLNPNAKEFNPRSF(averaged) A6G (TLNPNGKEFNPRSF)
DMS-derived PSSM value (averaged), position A6 [18]: 0

TLNPNAKEFNPRSF(averaged) F14N (TLNPNAKEFNPRSN)
DMS-derived PSSM value (averaged), position F14 [5]: 0.05683

TLNPNAKEFNPRSF(averaged) S13T (TLNPNAKEFNPRTF)
DMS-derived PSSM value (averaged), position S13 [13]: 0.05607

KSTLNPNAKEFNPRSF A8N (KSTLNPNNKEFNPRSF)
DMS-derived PSSM value, position A8 (prey ATXN2, peptide KSTLNPNAKEFNPRSF, A = wild type): 0

TLNPNAKEFNPRSFSQ F9N (TLNPNAKENNPRSFSQ)
DMS-derived PSSM value, position F9 [15]: 0

TLNPNAKEFNPRSFSQ A6I (TLNPNIKEFNPRSFSQ)
DMS-derived PSSM value, position A6 [7]: 0.03549

KSTLNPNAKEFNPRSF N7I (KSTLNPIAKEFNPRSF)
DMS-derived PSSM value, position N7 [16]: 0.5578

TLNPNAKEFNPRSFSQ K7W (TLNPNAWEFNPRSFSQ)
DMS-derived PSSM value, position K7 [20]: 0.03322

TLNPNAKEFNPRSFSQ F14E (TLNPNAKEFNPRSESQ)
DMS-derived PSSM value, position F14 [15]: 0.02018

KSTLNPNAKEFNPRSF F16E (KSTLNPNAKEFNPRSE)
DMS-derived PSSM value, position F16 [19]: 0.01536

TLNPNAKEFNPRSF(averaged) S13H (TLNPNAKEFNPRHF)
DMS-derived PSSM value (averaged), position S13 [13]: 0.06517

KSTLNPNAKEFNPRSF F11K (KSTLNPNAKEKNPRSF)
DMS-derived PSSM value, position F11 [19]: 0.006092

TLNPNAKEFNPRSFSQ K7L (TLNPNALEFNPRSFSQ)
DMS-derived PSSM value, position K7 [20]: 0.0009142

TLNPNAKEFNPRSF(averaged) K7E (TLNPNAEEFNPRSF)
DMS-derived PSSM value (averaged), position K7 [12]: 0.01581

KSTLNPNAKEFNPRSF R14F (KSTLNPNAKEFNPFSF)
DMS-derived PSSM value, position R14 (prey ATXN2, peptide KSTLNPNAKEFNPRSF, R = wild type): 0.03238

KSTLNPNAKEFNPRSF S2P (KPTLNPNAKEFNPRSF)
DMS-derived PSSM value, position S2 [11]: 0.1938
